Values after ≈ are worked out from the molar mass of the structure shown. Each block holds one compound with its values, some of them ahead of it.
Columns and labels:
[1] = Estimated hot solubility in solvents at elevated temperature (approximately solvent boiling point); assay type: physicochemical
Description: Compound I was dissolved in a variety of solvents at elevated temperature (approximately at solvent boiling point) to provide solutions of Compound I with a maximum concentration of 15 mg/mL. The input material in these experiments was a mixture of polymorphic forms 1, 2, and 3.
When concentrations of Compound I was greater than 2 mg/mL, the solutions were filtered and evaporated at 25° C. to isolate the solid.

[2] = system: mouse model of skin fibrosis; settings: cited from earlier work
[3] = system: patients with diffuse cutaneous systemic sclerosis SSc (dcSSc); settings: cited from earlier work
[4] = Slurry stability study at room temperature (25° C.), 4 weeks, analysis by FTIR; assay type: physicochemical; settings: for Final form after slurry: 25° C., 4 weeks, FTIR
Description: Slurry stability Maturation studies were initially conducted for the purpose of identifying the most […] stable form at room temperature (25° C.
In this set of experiments, both the individual forms and mixtures of forms were slurried in several solvents for 4 weeks, then filtered and analyzed to determine the resulting form. The first set of experiments included pure Form 1, Form 2, Form 3, and mixtures of these forms in equal amounts. The solvents included methanol, ethyl acetate, MEK, and methyl THF in order to investigate a range of solvent polarity. Additional experiments were conducted with a mixture of Form 1 and Form 4 in MEK and methanol.
Analysis was performed by FTIR due to ease of analysis for small quantities. It is interesting to note that the acid carbonyl is shifted to a different location for each polymorph. The results for the first set of experiments are listed below, comparing the starting form with the final form.

[5] = Solubility of polymorphs at pH 7.4 in phosphate buffer at 25° C.; assay type: physicochemical; settings: pH 7.4 phosphate buffer; for Solubility, concentration (equilibrium): 24 hr
Description: The solubility of the different polymorphs was determined at pH 7.4 in phosphate buffer at 25° C. Samples were analyzed as a function of time for each form to determine the equilibrium values. The residual solids from each sample were analyzed to verify that the form was unchanged during the experiment. The concentration (mg/mL) versus time data is listed below for each form: […]

[6] = Slurry conversion study at 40-70° C., Form 1/Form 2 1:1 mixture; assay type: physicochemical
Description: Slurry converstion studies were also conducted at 40-70° C. with Forms 1 and 2 to determine a transition temperature between the forms. A mixture of Form 1 and Form 2 at a (1:1 ratio) was slurried at 40° C., 50° C., 60° C., and 70° C. in two different solvents at each temperature and then analyzed to determine the direction of transformation. At 40° C. and 50° C., Methanol and MEK were used. At 60° C. and 70° C. MEK and 1-Pentanol were used.

[7] = Dynamic vapor sorption (DVS); assay type: physicochemical; settings: 25° C.
Description: Moisture sorption/desorption isotherms are recorded on a DVS-1 from SURFACE MEASUREMENT SYSTEMS. Two cycles are run at 25° C., in which the Relative Humidity (RH) is stepped from 0 to 95% and back to 0%. The data is evaluated with the software DVSWin V. 2.15.

Compound: COc1ccc(C(=O)NC2(C(=O)O)Cc3ccccc3C2)cc1OCCc1cccc(C)c1 [Compound I, 2-(4-methoxy-3-(3-methylphenethoxy)benzamido)-2,3-dihydro-1H-indene-2-carboxylic acid]
Hot Solubility (est) ([1]; 1-Butanol): >10000 µg/mL | Hot Solubility (est) ([1]; 1-Pentanol): >10000 µg/mL | Hot Solubility (est) ([1]; Acetone): >10000 µg/mL | Hot Solubility (est) ([1]; Ethanol): >10000 µg/mL | Hot Solubility (est) ([1]; Hexane): <2000 µg/mL | Hot Solubility (est) ([1]; Isobutyl Alcohol): >10000 µg/mL | Hot Solubility (est) ([1]; Methanol): >10000 µg/mL | Hot Solubility (est) ([1]; Water): <2000 µg/mL | Collagen content [2]: reduced | Dermal thickening [2]: reversed | Myofibroblast differentiation [2]: significantly inhibited | Outcome measures [3]: improved | Target engagement [3]: demonstrated

Compound: COc1ccc(C(=O)NC2(C(=O)O)Cc3ccccc3C2)cc1OCCc1cccc(C)c1 [Form 3, 2-(4-methoxy-3-(3-methylphenethoxy)benzamido)-2,3-dihydro-1H-indene-2-carboxylic acid]
Final form after slurry ([4]; Ethyl Acetate): Form 1 | Final form after slurry ([4]; MEK): Form 1 | Final form after slurry ([4]; Methanol): Form 1 | Final form after slurry ([4]; Methyl THF): Form 1 | Equilibrium solubility at 24 hours compared with Form 1 [5]: more than double | Solubility, concentration (equilibrium) [5]: 97 µg/mL (≈ 218 µM)

Compound: COc1ccc(C(=O)NC2(C(=O)O)Cc3ccccc3C2)cc1OCCc1cccc(C)c1 [Form 2, 2-(4-methoxy-3-(3-methylphenethoxy)benzamido)-2,3-dihydro-1H-indene-2-carboxylic acid]
Final form after slurry ([4]; Ethyl Acetate): Form 2 | Final form after slurry ([4]; MEK): Form 1 | Final form after slurry ([4]; Methanol): Form 2 | Final form after slurry ([4]; Methyl THF): Form 2 | solubility at 24 h ([5]; aqueous buffer, thermodynamic from solid, read-out: Solubility, concentration (equilibrium)): 57 µg/mL (≈ 128 µM) | 24 hour solubility, greater than Form 1 by [5]: more than 30%

Compound: COc1ccc(C(=O)NC2(C(=O)O)Cc3ccccc3C2)cc1OCCc1cccc(C)c1 [Form 1, 2-(4-methoxy-3-(3-methylphenethoxy)benzamido)-2,3-dihydro-1H-indene-2-carboxylic acid]
Final form after slurry ([4]; Ethyl Acetate): Form 1 | Final form after slurry ([4]; MEK): Form 1 | Final form after slurry ([4]; Methanol): Form 1 | Final form after slurry ([4]; Methyl THF): Form 1 | Relative stability of the crystal forms ([4]; room temperature (25° C.)): most stable form | Reversible water uptake (bound) [7]: less than 1% | Reversible water uptake ([7]; between 0 and 95% RH): ~−0.1 % w/w

The remaining lines, values ahead:

Final form after slurry ([4]; MEK): Form 1 | Final form after slurry ([4]; Methanol): Form 1 | Final form after slurry ([4]; Methyl THF): Form 1
Compound: COc1ccc(C(=O)NC2(C(=O)O)Cc3ccccc3C2)cc1OCCc1cccc(C)c1 [Forms 1, 2, 3]

Final form after slurry ([4]; MEK): Form 1 | Final form after slurry ([4]; Methanol): Form 1
Compound: COc1ccc(C(=O)NC2(C(=O)O)Cc3ccccc3C2)cc1OCCc1cccc(C)c1 [mixtures of Form 4 and Form 1]

Form after slurry (direction of transformation) ([6]; 1-Pentanol, 60° C.): Form 2 | Form after slurry (direction of transformation) ([6]; 1-Pentanol, 70° C.): Form 2 | Form after slurry (direction of transformation) ([6]; MEK, 40° C.): Form 1 | Form after slurry (direction of transformation) ([6]; MEK, 50° C.): Form 1 | Form after slurry (direction of transformation) ([6]; MEK, 60° C.): Form 2 | Form after slurry (direction of transformation) ([6]; MEK, 70° C.): Form 2 | Form after slurry (direction of transformation) ([6]; Methanol, 40° C.): Form 1 | Form after slurry (direction of transformation) ([6]; Methanol, 50° C.): Form 1
Compound: COc1ccc(C(=O)NC2(C(=O)O)Cc3ccccc3C2)cc1OCCc1cccc(C)c1 [mixture of Form 1 and Form 2]

Equilibrium solubility at 24 hours compared with Form 1 [5]: more than double | Solubility, concentration (equilibrium) [5]: 102 µg/mL (≈ 229 µM)
Compound: COc1ccc(C(=O)NC2(C(=O)O)Cc3ccccc3C2)cc1OCCc1cccc(C)c1 [Form 4, 2-(4-methoxy-3-(3-methylphenethoxy)benzamido)-2,3-dihydro-1H-indene-2-carboxylic acid]

Source: patent publication US20230322657A1, “CRYSTALLINE EDG-2 RECEPTOR ANTAGONIST AND METHODS OF MAKING” (Sanofi, priority 2020, published 2023)
